Legend:
[1] = biological target: Mitogen-activated protein kinase kinase kinase 5 (Homo sapiens) (UniProt Q99683); assay: Inhibition of wild-type human partial length ASK1 (E648 to S964 residues) expressed in bacterial expression system at 1 uM by Kinomescan method relative to control
[2] = biological target: Mitogen-activated protein kinase 11 (Homo sapiens) (UniProt Q15759); assay: Inhibition of wild-type human full length p38-beta (M1 to Q364 residues) expressed in bacterial expression system at 1 uM by Kinomescan method relative to control
Chain of Mitogen-activated protein kinase 11 (Homo sapiens) (Q15759 whole entry, the tested form may be a part): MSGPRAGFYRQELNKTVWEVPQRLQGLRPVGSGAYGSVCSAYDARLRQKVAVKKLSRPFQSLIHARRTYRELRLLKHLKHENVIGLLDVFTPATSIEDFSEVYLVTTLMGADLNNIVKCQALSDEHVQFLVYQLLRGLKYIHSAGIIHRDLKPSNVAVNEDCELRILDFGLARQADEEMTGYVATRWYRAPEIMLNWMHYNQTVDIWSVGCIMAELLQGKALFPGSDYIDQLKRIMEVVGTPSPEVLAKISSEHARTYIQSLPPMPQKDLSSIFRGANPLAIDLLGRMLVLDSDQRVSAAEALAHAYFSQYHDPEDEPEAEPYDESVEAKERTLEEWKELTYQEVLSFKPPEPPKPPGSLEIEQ

[3] = biological target: Serine/threonine-protein kinase ULK3 (Homo sapiens) (UniProt Q6PHR2); assay: Inhibition of wild-type human partial length ULK3 (M1 to Q290 residues) expressed in mammalian expression system at 1 uM by Kinomescan method relative to control
[4] = biological target: Cyclin-dependent kinase-like 1 (Homo sapiens) (UniProt Q00532); assay: Inhibition of wild-type human full length CDKL1 (M1 to I358 residues) expressed in mammalian expression system at 1 uM by Kinomescan method relative to control
[5] = biological target: Serine/threonine-protein kinase NLK (Homo sapiens) (UniProt Q9UBE8); assay: Inhibition of wild-type human full length NLK (M13 to E527 residues) expressed in bacterial expression system at 1 uM by Kinomescan method relative to control
[6] = biological target: Rhodopsin kinase GRK1 (Homo sapiens) (UniProt Q15835); assay: Inhibition of wild-type human full length GRK1 (M1 to S563 residues) expressed in mammalian expression system at 1 uM by Kinomescan method relative to control
[7] = biological target: Mast/stem cell growth factor receptor Kit (Homo sapiens) (UniProt P10721); assay: Inhibition of wild-type human partial length KIT (I571 to D952 residues) expressed in bacterial expression system at 1 uM by Kinomescan method relative to control
[8] = biological target: Calcium/calmodulin-dependent protein kinase kinase 1 (Homo sapiens) (UniProt Q8N5S9); assay: Inhibition of wild-type human partial length CAMKK1 (R65 to E414 residues) expressed in bacterial expression system at 1 uM by Kinomescan method relative to control
[9] = biological target: TGF-beta receptor type-2 (Homo sapiens) (UniProt P37173); assay: Inhibition of wild-type human partial length TGFBR2 (I218 to K567 residues) expressed in bacterial expression system at 1 uM by Kinomescan method relative to control
[10] = test system: Hepatocyte growth factor receptor (Homo sapiens), P08581 [M1250T]; assay: Inhibition of human partial length MET M1250T mutant (D1010 to S1367 residues) expressed in bacterial expression system at 1 uM by Kinomescan method relative to control
Chain of Hepatocyte growth factor receptor (Homo sapiens), P08581 [M1250T] (P08581 whole entry M1250T, the tested form may be a part): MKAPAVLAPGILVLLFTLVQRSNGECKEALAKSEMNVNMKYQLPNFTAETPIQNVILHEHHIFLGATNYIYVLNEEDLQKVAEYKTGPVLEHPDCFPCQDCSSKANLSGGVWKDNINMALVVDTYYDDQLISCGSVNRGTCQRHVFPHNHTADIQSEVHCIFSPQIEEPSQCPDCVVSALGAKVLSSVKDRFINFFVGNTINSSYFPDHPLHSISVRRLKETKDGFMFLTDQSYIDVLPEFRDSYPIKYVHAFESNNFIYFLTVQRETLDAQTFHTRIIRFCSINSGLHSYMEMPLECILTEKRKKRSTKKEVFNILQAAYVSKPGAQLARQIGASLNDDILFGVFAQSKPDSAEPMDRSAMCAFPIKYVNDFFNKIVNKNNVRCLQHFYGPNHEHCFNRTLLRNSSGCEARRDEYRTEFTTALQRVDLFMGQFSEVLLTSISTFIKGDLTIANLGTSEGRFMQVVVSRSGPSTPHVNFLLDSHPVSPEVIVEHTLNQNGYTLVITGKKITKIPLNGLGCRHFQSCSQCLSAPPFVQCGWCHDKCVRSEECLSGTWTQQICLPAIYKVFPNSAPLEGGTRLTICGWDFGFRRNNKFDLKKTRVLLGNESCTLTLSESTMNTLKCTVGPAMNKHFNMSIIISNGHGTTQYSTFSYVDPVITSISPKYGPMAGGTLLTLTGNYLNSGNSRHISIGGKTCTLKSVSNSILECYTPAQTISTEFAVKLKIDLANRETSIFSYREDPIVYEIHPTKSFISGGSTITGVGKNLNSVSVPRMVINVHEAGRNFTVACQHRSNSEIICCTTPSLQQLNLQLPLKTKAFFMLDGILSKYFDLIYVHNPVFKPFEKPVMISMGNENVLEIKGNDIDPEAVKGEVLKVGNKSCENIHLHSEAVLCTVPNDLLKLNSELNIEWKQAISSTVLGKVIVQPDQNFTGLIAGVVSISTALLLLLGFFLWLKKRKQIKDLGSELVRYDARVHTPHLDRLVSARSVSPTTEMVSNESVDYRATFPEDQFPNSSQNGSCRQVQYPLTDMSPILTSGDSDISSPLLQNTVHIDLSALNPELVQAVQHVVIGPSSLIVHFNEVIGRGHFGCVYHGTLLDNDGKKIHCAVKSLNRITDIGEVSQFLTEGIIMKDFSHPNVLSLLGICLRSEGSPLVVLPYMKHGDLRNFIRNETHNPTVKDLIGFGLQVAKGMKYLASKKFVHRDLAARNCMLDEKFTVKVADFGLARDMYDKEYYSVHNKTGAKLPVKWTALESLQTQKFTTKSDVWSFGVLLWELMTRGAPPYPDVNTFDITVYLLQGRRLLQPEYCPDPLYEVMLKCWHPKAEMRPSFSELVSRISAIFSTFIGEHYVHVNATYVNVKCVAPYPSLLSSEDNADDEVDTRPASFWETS

[11] = biological target: Misshapen-like kinase 1 (Homo sapiens) (UniProt Q8N4C8); assay: Inhibition of wild-type human partial length MINK (M1 to K312 residues) expressed in mammalian expression system at 1 uM by Kinomescan method relative to control
[12] = biological target: Serine/threonine-protein kinase ICK (Homo sapiens) (UniProt Q9UPZ9); assay: Inhibition of wild-type human partial length ICK (M1 to P314 residues) expressed in mammalian expression system at 1 uM by Kinomescan method relative to control
[13] = biological target: Serine/threonine-protein kinase TBK1 (Homo sapiens) (UniProt Q9UHD2); assay: Inhibition of wild-type human full length TBK1 (M1 to L729 residues) expressed in mammalian expression system at 1 uM by Kinomescan method relative to control
[14] = biological target: Serine/threonine-protein kinase pim-3 (Homo sapiens) (UniProt Q86V86); assay: Inhibition of wild-type human partial length PIM3 (G16 to A317 residues) expressed in bacterial expression system at 1 uM by Kinomescan method relative to control
[15] = biological target: Mitogen-activated protein kinase kinase kinase kinase 2 (Homo sapiens) (UniProt Q12851); assay: Inhibition of wild-type human partial length MAP4K2 (M1 to G318 residues) expressed in mammalian expression system at 10 uM by Kinomescan method relative to control
Chain of Mitogen-activated protein kinase kinase kinase kinase 2 (Homo sapiens) (Q12851 whole entry, the tested form may be a part): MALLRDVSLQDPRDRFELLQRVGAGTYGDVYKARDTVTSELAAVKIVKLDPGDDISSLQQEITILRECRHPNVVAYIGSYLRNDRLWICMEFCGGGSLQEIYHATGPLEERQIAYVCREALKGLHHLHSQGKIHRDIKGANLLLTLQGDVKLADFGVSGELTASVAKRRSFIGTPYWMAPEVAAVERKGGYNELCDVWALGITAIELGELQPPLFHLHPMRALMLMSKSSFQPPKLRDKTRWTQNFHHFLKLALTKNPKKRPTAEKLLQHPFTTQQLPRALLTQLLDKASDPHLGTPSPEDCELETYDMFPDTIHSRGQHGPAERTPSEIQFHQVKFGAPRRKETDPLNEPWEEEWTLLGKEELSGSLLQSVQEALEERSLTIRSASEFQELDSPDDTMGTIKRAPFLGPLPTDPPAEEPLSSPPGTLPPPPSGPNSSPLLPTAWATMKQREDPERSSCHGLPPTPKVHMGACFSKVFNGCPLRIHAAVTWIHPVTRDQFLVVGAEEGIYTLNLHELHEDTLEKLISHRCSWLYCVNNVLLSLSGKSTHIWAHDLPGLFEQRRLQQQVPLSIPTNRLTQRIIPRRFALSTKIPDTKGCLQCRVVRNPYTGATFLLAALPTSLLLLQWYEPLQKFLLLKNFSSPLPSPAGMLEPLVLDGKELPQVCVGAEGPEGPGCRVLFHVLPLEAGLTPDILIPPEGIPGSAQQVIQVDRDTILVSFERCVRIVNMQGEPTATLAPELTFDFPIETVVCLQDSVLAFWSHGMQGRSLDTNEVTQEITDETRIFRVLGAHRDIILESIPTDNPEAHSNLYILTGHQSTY

[16] = biological target: Ephrin type-A receptor 3 (Homo sapiens) (UniProt P29320); assay: Inhibition of wild-type human partial length EPHA3 (D604 to K889 residues) expressed in bacterial expression system at 10 uM by Kinomescan method relative to control
[17] = biological target: SRSF protein kinase 1 (Homo sapiens) (UniProt Q96SB4); assay: Inhibition of wild-type human full length SRPK1 (M1 to S655 residues) expressed in bacterial expression system at 10 uM by Kinomescan method relative to control
[18] = biological target: Peripheral plasma membrane protein CASK (Homo sapiens) (UniProt O14936); assay: Inhibition of wild-type human partial length CASK (M1 to H315 residues) expressed in mammalian expression system at 10 uM by Kinomescan method relative to control
[19] = biological target: LIM domain kinase 1 (Homo sapiens) (UniProt P53667); assay: Inhibition of wild-type human full length LIMK1 (M1 to D647 residues) expressed in bacterial expression system at 10 uM by Kinomescan method relative to control
Chain of LIM domain kinase 1 (Homo sapiens) (P53667 whole entry, looked up, the tested form may be a part): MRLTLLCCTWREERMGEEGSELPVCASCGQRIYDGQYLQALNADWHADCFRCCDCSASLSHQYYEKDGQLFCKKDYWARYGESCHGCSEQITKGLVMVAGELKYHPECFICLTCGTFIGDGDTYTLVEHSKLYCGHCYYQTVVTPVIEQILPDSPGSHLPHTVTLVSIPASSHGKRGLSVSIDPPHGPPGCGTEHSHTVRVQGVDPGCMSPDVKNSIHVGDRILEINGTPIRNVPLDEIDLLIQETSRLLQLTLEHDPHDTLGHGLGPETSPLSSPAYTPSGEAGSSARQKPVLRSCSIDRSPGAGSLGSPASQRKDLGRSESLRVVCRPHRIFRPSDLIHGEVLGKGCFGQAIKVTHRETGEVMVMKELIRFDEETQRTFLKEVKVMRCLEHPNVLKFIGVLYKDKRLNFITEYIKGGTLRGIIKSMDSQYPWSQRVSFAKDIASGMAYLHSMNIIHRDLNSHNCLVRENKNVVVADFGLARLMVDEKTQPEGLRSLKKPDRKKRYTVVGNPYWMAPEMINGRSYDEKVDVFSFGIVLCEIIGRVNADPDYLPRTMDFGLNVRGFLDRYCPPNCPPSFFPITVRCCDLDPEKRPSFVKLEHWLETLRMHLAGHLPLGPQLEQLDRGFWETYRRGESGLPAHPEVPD

[20] = biological target: Cyclin-G-associated kinase (Homo sapiens) (UniProt O14976); assay: Inhibition of wild-type human partial length GAK (G13 to Y338 residues) expressed in bacterial expression system at 10 uM by Kinomescan method relative to control
[21] = biological target: Death-associated protein kinase 3 (Homo sapiens) (UniProt O43293); assay: Inhibition of wild-type human partial length DAPK3 (M1 to A277 residues) expressed in bacterial expression system at 10 uM by Kinomescan method relative to control
Chain of Death-associated protein kinase 3 (Homo sapiens) (O43293 whole entry, looked up, the tested form may be a part): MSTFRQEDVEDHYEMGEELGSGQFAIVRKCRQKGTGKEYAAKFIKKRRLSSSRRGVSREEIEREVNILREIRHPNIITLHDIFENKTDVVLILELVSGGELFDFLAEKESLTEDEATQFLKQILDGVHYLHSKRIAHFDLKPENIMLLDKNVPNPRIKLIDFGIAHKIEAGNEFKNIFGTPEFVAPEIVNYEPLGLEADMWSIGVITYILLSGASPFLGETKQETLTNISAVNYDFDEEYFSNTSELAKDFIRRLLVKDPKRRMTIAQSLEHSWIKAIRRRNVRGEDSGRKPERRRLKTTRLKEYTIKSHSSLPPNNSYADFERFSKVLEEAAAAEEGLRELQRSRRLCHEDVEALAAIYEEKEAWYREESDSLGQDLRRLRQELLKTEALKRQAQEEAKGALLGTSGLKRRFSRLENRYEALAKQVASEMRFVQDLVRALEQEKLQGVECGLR

[22] = test system: Receptor-type tyrosine-protein kinase FLT3 (Homo sapiens), P36888 [D835Y]; assay: Inhibition of human partial length FLT3 D835Y mutant (Q580 to Y969 residues) expressed in bacterial expression system at 10 uM by Kinomescan method relative to control
[23] = test system: Mast/stem cell growth factor receptor Kit (Homo sapiens), P10721 [A829P]; assay: Inhibition of human partial length KIT A829P mutant (I571 to D952 residues) expressed in mammalian expression system at 10 uM by Kinomescan method relative to control
Chain of Mast/stem cell growth factor receptor Kit (Homo sapiens), P10721 [A829P] (P10721 whole entry A829P, the tested form may be a part, canonical isoform): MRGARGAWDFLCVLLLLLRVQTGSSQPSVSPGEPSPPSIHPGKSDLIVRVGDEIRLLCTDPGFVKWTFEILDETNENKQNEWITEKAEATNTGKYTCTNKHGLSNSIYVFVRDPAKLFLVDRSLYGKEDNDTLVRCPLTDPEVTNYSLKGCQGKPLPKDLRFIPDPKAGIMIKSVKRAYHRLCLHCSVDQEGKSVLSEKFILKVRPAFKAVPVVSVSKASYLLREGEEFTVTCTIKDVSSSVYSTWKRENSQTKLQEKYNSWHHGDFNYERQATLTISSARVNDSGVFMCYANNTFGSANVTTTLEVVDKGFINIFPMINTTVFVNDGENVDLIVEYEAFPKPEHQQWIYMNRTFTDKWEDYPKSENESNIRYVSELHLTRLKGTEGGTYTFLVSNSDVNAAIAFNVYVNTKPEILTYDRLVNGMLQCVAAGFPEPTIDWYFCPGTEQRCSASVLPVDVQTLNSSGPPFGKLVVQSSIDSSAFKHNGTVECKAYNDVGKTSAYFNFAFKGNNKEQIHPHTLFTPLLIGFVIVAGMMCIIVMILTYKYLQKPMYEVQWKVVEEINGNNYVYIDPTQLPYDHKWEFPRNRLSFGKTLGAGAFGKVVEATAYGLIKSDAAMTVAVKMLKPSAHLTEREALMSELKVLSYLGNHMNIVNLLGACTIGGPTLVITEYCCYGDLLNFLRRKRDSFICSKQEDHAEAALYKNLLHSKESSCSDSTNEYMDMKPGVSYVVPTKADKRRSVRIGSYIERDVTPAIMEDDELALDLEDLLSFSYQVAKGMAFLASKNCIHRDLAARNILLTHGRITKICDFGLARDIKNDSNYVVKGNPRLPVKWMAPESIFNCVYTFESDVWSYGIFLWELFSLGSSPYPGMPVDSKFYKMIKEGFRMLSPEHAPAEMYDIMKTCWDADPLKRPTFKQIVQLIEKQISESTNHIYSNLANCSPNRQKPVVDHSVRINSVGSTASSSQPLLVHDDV

[24] = test system: Phosphatidylinositol 4,5-bisphosphate 3-kinase catalytic subunit alpha isoform (Homo sapiens), P42336 [Q546K]; assay: Inhibition of human partial length PIK3CA Q546K mutant (R108 to N1068 residues) expressed in mammalian expression system at 10 uM by Kinomescan method relative to control
[25] = biological target: Ephrin type-A receptor 8 (Homo sapiens) (UniProt P29322); assay: Inhibition of wild-type human partial length EPHA8 (Q608 to C920 residues) expressed in bacterial expression system at 10 uM by Kinomescan method relative to control
[26] = biological target: Mitogen-activated protein kinase 10 (Homo sapiens) (UniProt P53779); assay: Inhibition of wild-type human partial length JNK3 (V28 to Q422 residues) expressed in mammalian expression system at 10 uM by Kinomescan method relative to control
[27] = biological target: Dual specificity tyrosine-phosphorylation-regulated kinase 1A (Homo sapiens) (UniProt Q13627); assay: Inhibition of wild-type human partial length DYRK1A (H129 to S509 residues) expressed in mammalian expression system at 10 uM by Kinomescan method relative to control

O=C(Nc1cccc([C@@H]2CN(c3ncnc4[nH]ccc34)CCN2CCO)c1)Nc1c(F)cccc1N1CCCC1
inhibition [1]: 97%
inhibition [2]: 92%
inhibition [3]: 11%
inhibition [4]: 73%
inhibition [5]: 100%
inhibition [6]: 78%
inhibition [7]: 73%
inhibition [8]: 100%
inhibition [9]: 100%
inhibition [10]: 91%
inhibition [11]: 69%
inhibition [12]: 100%
inhibition [13]: 81%
inhibition [14]: 89%

O=C(Nc1cccc([C@H]2CCCN(c3ncnc4[nH]ccc34)C2)c1)Nc1ccccc1N1CCCC1
inhibition [15]: 61%
inhibition [16]: 74%
inhibition [17]: 0.45%
inhibition [18]: 85%
inhibition [19]: 97%
inhibition [20]: 24%
inhibition [21]: 4.1%
inhibition [22]: 1.9%
inhibition [23]: 15%
inhibition [24]: 81%
inhibition [25]: 40%
inhibition [26]: 64%
inhibition [27]: 81%
